In article PMC10360169 (Frontiers in Immunology, 2023):

These sequences were tested on Acar3. Conditions: not given.
Format: binding, great reed warbler Acrocephalus arundinaceus

| Sequence | Stability T½ (h), peptide - Acar3 [h] | Stability T½ of Acar3 in complex with the peptide [min] |
| --- | --- | --- |
| SLAIDAYPL [9-mer peptide] | 2.1 | 126 |

Same assay, conditions: Table S1; top 94 PSCPL-scoring peptides; SPA, 10µM peptide, 125I β2m, folding over night at 18°C, dissociation measured up to 24 hours at 37°C

| Sequence | Stability T½ of Acar3 in complex with the peptide [min] |
| --- | --- |
| SMMPEAMTI [9-mer peptide] | 54 |
| SQMGLSCAL [9-mer peptide] | 18 |
| STEFIPNLF [9-mer peptide] | 18 |
| SVYFAAFAF [9-mer peptide] | 96 |
| SYPPPPASF [9-mer peptide] | 12 |
| VIMWYNYLF [9-mer peptide] | 18 |
| VMMAKRPLI [9-mer peptide] | 30 |
| VMPLLVWLF [9-mer peptide] | 114 |
| VPMEKLKAL [9-mer peptide] | 84 |
| WMACNSAAF [9-mer peptide] | 54 |
| WMMAMRYPI [9-mer peptide] | 186 |
| WQLTSIWPI [9-mer peptide] | 42 |
| YLLEMLWRL [9-mer peptide] | 24 |
| YLQQNTHTL [9-mer peptide] | 30 |
| YLYLRPYAL [9-mer peptide] | 144 |
| YMHGSIHEV [9-mer peptide] | 54 |
| YMWECPDFF [9-mer peptide] | 156 |
| YMWLGARYL [9-mer peptide] | 24 |
| YWMGGTTYF [9-mer peptide] | 48 |

Same assay, conditions: Table S5; half-life estimated from dissociation in scintillation proximity assay; Acar3

| Sequence | Stability T½ (h), peptide - Acar3 [h] |
| --- | --- |
| SMFERDFHF [9-mer peptide] | 0.2 |
| SMHFYGWSL [9-mer peptide] | 0.2 |
| SMMPEAMTI [9-mer peptide] | 0.9 |
| SQMGLSCAL [9-mer peptide] | 0.3 |
| STEFIPNLF [9-mer peptide] | 0.3 |
| SVYFAAFAF [9-mer peptide] | 1.6 |
| SYPPPPASF [9-mer peptide] | 0.2 |
| VIMWYNYLF [9-mer peptide] | 0.3 |
| VMMAKRPLI [9-mer peptide] | 0.5 |
| VMPLLVWLF [9-mer peptide] | 1.9 |
| VPMEKLKAL [9-mer peptide] | 1.4 |
| VQTAAAVVF [9-mer peptide] | 0.2 |
| VVKQLPASF [9-mer peptide] | 0.1 |
| WLAKSFFEL [9-mer peptide] | 0.2 |
| WMACNSAAF [9-mer peptide] | 0.9 |
| WMMAMRYPI [9-mer peptide] | 3.1 |
| WQLTSIWPI [9-mer peptide] | 0.7 |
| YLLEMLWRL [9-mer peptide] | 0.4 |
| YLMPYSVYI [9-mer peptide] | 0.1 |
| YLQQNTHTL [9-mer peptide] | 0.5 |
| YLYLRPYAL [9-mer peptide] | 2.4 |
| YMHGSIHEV [9-mer peptide] | 0.9 |
| YMKKRYEEF [9-mer peptide] | 0.2 |
| YMWECPDFF [9-mer peptide] | 2.6 |
| YMWLGARYL [9-mer peptide] | 0.4 |
| YWMGGTTYF [9-mer peptide] | 0.8 |

These sequences were tested on Acar19. Conditions: Table S5, half-life estimated from dissociation in scintillation proximity assay.
Format: binding, great reed warbler Acrocephalus arundinaceus

| Sequence | Stability T½ (h), peptide - Acar19 [h] |
| --- | --- |
| AFHQLVQVI [9-mer peptide] | 0.3 |
| AYAGLFTPL [9-mer peptide] | 0.4 |
| DAAKNQVAM [9-mer peptide] | 0.2 |
| DAAVVFPPV [9-mer peptide] | 10.0 |
| DALLNEENL [9-mer peptide] | 2.0 |
| DAMENPLSL [9-mer peptide] | 0.2 |
| DASFNASAI [9-mer peptide] | 1.0 |
| DAVRNAAAI [9-mer peptide] | 0.3 |
| DFGYATMAK [9-mer peptide] | 0.3 |
| DFIANTETI [9-mer peptide] | 4.7 |
| DFISMYFPW [9-mer peptide] | 0.5 |
| DFNEAIQAY [9-mer peptide] | 0.3 |
| DHIPIINTL [9-mer peptide] | 0.3 |
| DIKLIDIAL [9-mer peptide] | 3.7 |
| DIQKLVGKL [9-mer peptide] | 0.4 |
| DISPTNIPL [9-mer peptide] | 0.2 |
| DMNLEQWSV [9-mer peptide] | 0.4 |
| DMSTNAEYF [9-mer peptide] | 0.2 |
| DMWEHAFYL [9-mer peptide] | 0.3 |
| DPNPQEMVL [9-mer peptide] | 0.1 |
| DPNPQEVVL [9-mer peptide] | 0.4 |
| DPSGAYFAW [9-mer peptide] | 0.1 |

| Sequence | Stability T½ (h), peptide - Acar19 [h] |
| --- | --- |
| DQIRNMSVI [9-mer peptide] | 0.3 |
| DSFPNSVTI [9-mer peptide] | 1.4 |
| DSIMLTATF [9-mer peptide] | 1.5 |
| DTAKAFAYL [9-mer peptide] | 0.5 |
| DTDPLPVVF [9-mer peptide] | 0.2 |
| DTETLTTMF [9-mer peptide] | 0.1 |
| DTFGVIDTM [9-mer peptide] | 0.2 |
| DTRAIDQFF [9-mer peptide] | 2.3 |
| DVAKIEAPL [9-mer peptide] | 11.4 |
| DVSPILEAY [9-mer peptide] | 0.1 |
| DVVPMVTQM [9-mer peptide] | 0.6 |
| DWMERIEDF [9-mer peptide] | 1.4 |
| DWSGYSGSF [9-mer peptide] | 0.3 |
| DYAMHGTVF [9-mer peptide] | 2.4 |
| DYLQCVLQI [9-mer peptide] | 6.6 |
| DYLQYVLQI [9-mer peptide] | 0.5 |
| EAAGIAACL [9-mer peptide] | 0.6 |
| EAAKNVECI [9-mer peptide] | 0.4 |
| EDFEIFYNL [9-mer peptide] | 0.4 |
| EFKQILTDF [9-mer peptide] | 3.6 |
| ENALLVALF [9-mer peptide] | 0.1 |
| ETFRLLRSF [9-mer peptide] | 0.1 |

| Sequence | Stability T½ (h), peptide - Acar19 [h] |
| --- | --- |
| EYAPFARLL [9-mer peptide] | 1.1 |
| EYARQVQMI [9-mer peptide] | 0.4 |
| FFSPVIASL [9-mer peptide] | 0.9 |
| FSIMIYFTF [9-mer peptide] | 0.2 |
| FSPRLCRPF [9-mer peptide] | 0.4 |
| FWPQHFGLI [9-mer peptide] | 0.1 |
| FYPPVLQPI [9-mer peptide] | 0.3 |
| GFNKLRSTL [9-mer peptide] | 0.4 |
| GFPSLESSF [9-mer peptide] | 0.1 |
| GYAWIDFDI [9-mer peptide] | 0.2 |
| HAATNFREI [9-mer peptide] | 0.1 |
| HTAEIQQFF [9-mer peptide] | 0.3 |
| HYNAFHWAI [9-mer peptide] | 0.3 |
| HYNAFQWAI [9-mer peptide] | 0.3 |
| IAAPNMIAV [9-mer peptide] | 0.1 |
| IAASNLEQF [9-mer peptide] | 0.1 |
| IAKGIDAEF [9-mer peptide] | 0.1 |
| IALPVAWLF [9-mer peptide] | 0.1 |
| IANTTDHFF [9-mer peptide] | 0.2 |
| IASPILFPF [9-mer peptide] | 0.5 |
| IFDDLQGSL [9-mer peptide] | 0.1 |
| IFPSMYFLM [9-mer peptide] | 0.1 |

| Sequence | Stability T½ (h), peptide - Acar19 [h] |
| --- | --- |
| IPAPGLGAL [9-mer peptide] | 0.2 |
| IPKYLEIEI [9-mer peptide] | 0.2 |
| IPNYLEIEI [9-mer peptide] | 0.6 |
| IQNALEKAL [9-mer peptide] | 0.1 |
| IQNATMDEF [9-mer peptide] | 0.1 |
| IQNEIMKPL [9-mer peptide] | 0.2 |
| IQNKLSSTF [9-mer peptide] | 0.2 |
| ISARGQELF [9-mer peptide] | 0.1 |
| ISASLAALF [9-mer peptide] | 0.1 |
| ISDPLTSGL [9-mer peptide] | 0.1 |
| ITAALAWSL [9-mer peptide] | 0.1 |
| ITDWLNFTL [9-mer peptide] | 0.1 |
| ITFHNQRDF [9-mer peptide] | 0.2 |
| IYAAISYMI [9-mer peptide] | 0.3 |
| IYGIFQSTF [9-mer peptide] | 0.1 |
| IYTVIYYIF [9-mer peptide] | 0.2 |
| IYYWTAWLI [9-mer peptide] | 0.2 |
| KASSAWHYF [9-mer peptide] | 0.2 |
| KDPENFDHF [9-mer peptide] | 0.2 |
| KFHQIEKEF [9-mer peptide] | 0.3 |
| KSNGAQQWL [9-mer peptide] | 0.1 |
| LAASVFFTF [9-mer peptide] | 0.2 |
